“And” between values parts separate entries of the source, which are not always exact repeats. Identical values can stand only once. Inconclusive results and toxic doses are left out.
Tested on: L1210 leukemia ip in BDF1 mice, survival T/C
Assay: NCI In Vivo Anticancer Drug Screen. Data for tumor model L1210 Leukemia (intraperitoneal) in B6D2F1 (BDF1) mice
Settings: higher = longer survival
In short: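 Antitumor effect is assessed in tumor-bearing animals. Survival in the compound arm is compared with a vehicle-dosed control arm and expressed as their quotient.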

[1] = endpoint: mean survival time, dose: 100.0 mg/kg/injection, schedule: Q04DX003 (ip), vehicle: saline with Tween-80
[2] = endpoint: mean survival time, dose: 200.0 mg/kg/injection, schedule: Q04DX003 (ip), vehicle: saline with Tween-80
[3] = endpoint: mean survival time, dose: 400.0 mg/kg/injection, schedule: Q04DX003 (ip), vehicle: saline with Tween-80
[4] = endpoint: mean survival time, dose: 100.0 mg/kg/injection, schedule: Q01DX001 (ip), vehicle: saline
[5] = endpoint: mean survival time, dose: 200.0 mg/kg/injection, schedule: Q01DX001 (ip), vehicle: saline
[6] = endpoint: mean survival time, dose: 400.0 mg/kg/injection, schedule: Q01DX001 (ip), vehicle: saline
[7] = endpoint: mean survival time, dose: 50.0 mg/kg/injection, schedule: Q01DX009 (ip), vehicle: Klucel (hydroxypropylcellulose) (HPC)
[8] = endpoint: mean survival time, dose: 100.0 mg/kg/injection, schedule: Q01DX009 (ip), vehicle: Klucel (hydroxypropylcellulose) (HPC)
[9] = endpoint: mean survival time, dose: 200.0 mg/kg/injection, schedule: Q01DX009 (ip), vehicle: Klucel (hydroxypropylcellulose) (HPC)
[10] = endpoint: mean survival time, dose: 100.0 mg/kg/injection, schedule: Q04DX002 (ip), vehicle: Klucel (hydroxypropylcellulose) (HPC)
[11] = endpoint: mean survival time, dose: 200.0 mg/kg/injection, schedule: Q04DX002 (ip), vehicle: Klucel (hydroxypropylcellulose) (HPC)
[12] = endpoint: mean survival time, dose: 400.0 mg/kg/injection, schedule: Q04DX002 (ip), vehicle: Klucel (hydroxypropylcellulose) (HPC)
[13] = endpoint: mean survival time, dose: 25.0 mg/kg/injection, schedule: Q04DX002 (ip), vehicle: saline
[14] = endpoint: mean survival time, dose: 50.0 mg/kg/injection, schedule: Q04DX002 (ip), vehicle: saline
[15] = endpoint: mean survival time, dose: 100.0 mg/kg/injection, schedule: Q04DX002 (ip), vehicle: saline
[16] = endpoint: mean survival time, dose: 5.0 mg/kg/injection, schedule: Q01DX001 (ip), vehicle: saline
[17] = endpoint: mean survival time, dose: 10.0 mg/kg/injection, schedule: Q01DX001 (ip), vehicle: saline
[18] = endpoint: mean survival time, dose: 20.0 mg/kg/injection, schedule: Q01DX001 (ip), vehicle: saline
[19] = endpoint: mean survival time, dose: 40.0 mg/kg/injection, schedule: Q01DX001 (ip), vehicle: saline
[20] = endpoint: mean survival time, dose: 100.0 mg/kg/injection, schedule: Q01DX001 (ip), vehicle: Klucel (hydroxypropylcellulose) (HPC)
[21] = endpoint: mean survival time, dose: 100.0 mg/kg/injection, schedule: Q04DX003 (ip), vehicle: Klucel (hydroxypropylcellulose) (HPC)
[22] = endpoint: mean survival time, dose: 200.0 mg/kg/injection, schedule: Q01DX001 (ip), vehicle: Klucel (hydroxypropylcellulose) (HPC)
[23] = endpoint: mean survival time, dose: 200.0 mg/kg/injection, schedule: Q04DX003 (ip), vehicle: Klucel (hydroxypropylcellulose) (HPC)
[24] = endpoint: mean survival time, dose: 400.0 mg/kg/injection, schedule: Q01DX001 (ip), vehicle: Klucel (hydroxypropylcellulose) (HPC)

`CCCCOP(=O)(OCCCC)[O][Pb]([CH2]C)([CH2]C)[CH2]C` was tested, and the T/C (endpoint: mean survival time, dose: 3.13 mg/kg/injection, schedule: Q01DX009 (ip), vehicle: saline with Tween-80) was 101 % of control and the T/C (endpoint: mean survival time, dose: 6.25 mg/kg/injection, schedule: Q01DX009 (ip), vehicle: saline with Tween-80) was 91 % of control.
For `Nc1c(Br)cc(Br)c2ccccc12`, the T/C (endpoint: mean survival time, dose: 100.0 mg/kg/injection, schedule: Q01DX009 (ip), vehicle: acetone) was 93 % of control, the T/C [1] was 97 % of control and the T/C (endpoint: mean survival time, dose: 200.0 mg/kg/injection, schedule: Q01DX009 (ip), vehicle: acetone) was 91 % of control. For the same molecule, the T/C [2] was 92 % of control, the T/C (endpoint: mean survival time, dose: 400.0 mg/kg/injection, schedule: Q01DX009 (ip), vehicle: acetone) was 93 % of control and the T/C [3] was 97 % of control.
With `CC(=O)Oc1ccc(C=O)cc1` the T/C (endpoint: mean survival time, dose: 50.0 mg/kg/injection, schedule: Q04DX003 (ip), vehicle: saline with Tween-80) was 96 % of control, the T/C [1] was 91 % of control and the T/C [2] was 96 % of control.
In the case of `O=C1NCCCCN1`, the T/C [1] is reported as 100 % of control, the T/C [2] is reported as 100 % of control and the T/C [3] is reported as 101 % of control.
In the case of `C=C1C(=O)OC2C1C(OC(=O)/C(C)=C/COC(C)=O)CC1(CO1)C1C(O)C=C(C)C21` (centres undefined), the T/C (endpoint: mean survival time, dose: 12.5 mg/kg/injection, schedule: Q01DX009 (ip), vehicle: alcohol) is reported as 103 % of control, the T/C (endpoint: mean survival time, dose: 25.0 mg/kg/injection, schedule: Q01DX009 (ip), vehicle: alcohol) is reported as 105 % of control and the T/C (endpoint: mean survival time, dose: 50.0 mg/kg/injection, schedule: Q01DX009 (ip), vehicle: alcohol) is reported as 105 % of control and 107 % of control.
In the case of `COC(=O)C1CC2(Br)C(Br)=C(Br)C1(Br)C2(Br)Br` (centres undefined), the T/C [4] is reported as 88 % of control, the T/C (endpoint: mean survival time, dose: 100.0 mg/kg/injection, schedule: Q01DX009 (ip), vehicle: saline) is reported as 102 % of control and the T/C [5] is reported as 100 % of control. The T/C (endpoint: mean survival time, dose: 200.0 mg/kg/injection, schedule: Q01DX009 (ip), vehicle: saline) was 98 % of control, the T/C [6] was 88 % of control and the T/C (endpoint: mean survival time, dose: 400.0 mg/kg/injection, schedule: Q01DX009 (ip), vehicle: saline) was 91 % of control.
For `Cc1cccc(OCC(O)CN2CCN(c3ccccc3)CC2)c1` (centres undefined), the T/C [7] was 104 % of control, the T/C [8] was 101 % of control and the T/C [9] was 115 % of control.
With `Oc1ccccc1/C=N/Nc1c2ccccc2nc2ccccc12` the T/C [4] was 103 % of control and the T/C [6] was 93 % of control.
For `COC(=O)N/N=C/c1cc(OC)ccc1O`, the T/C [10] was 97 % of control, the T/C [11] was 114 % of control and the T/C [12] was 104 % of control.
With `BrC1CC2OC2C2OC12` (centres undefined) the T/C [13] was 108 % of control, the T/C [14] was 105 % of control and the T/C [4] was 100 % of control. The T/C [15] was 102 % of control.
`Cc1ccc(Cl)cc1NC(=O)Oc1cc(C)c(Cl)c(C)c1` was tested, and the T/C [8] was 94 % of control and the T/C [9] was 96 % of control.
For `NC(CSS(=O)(=O)O)=NCCC1=NCCN1`, the T/C [13] was 101 % of control, the T/C [14] was 101 % of control and the T/C [15] was 101 % of control. The T/C (endpoint: mean survival time, dose: 200.0 mg/kg/injection, schedule: Q04DX002 (ip), vehicle: saline) was 96 % of control and 107 % of control and the T/C (endpoint: mean survival time, dose: 400.0 mg/kg/injection, schedule: Q04DX002 (ip), vehicle: saline) was 115 % of control.
For `CC(Cc1ccccc1)NCCCCl` (centres undefined), the T/C (endpoint: mean survival time, dose: 15.0 mg/kg/injection, schedule: Q01DX001 (ip), vehicle: carboxymethylcellulose (CMC)) was 89 % of control, the T/C (endpoint: mean survival time, dose: 30.0 mg/kg/injection, schedule: Q01DX001 (ip), vehicle: carboxymethylcellulose (CMC)) was 95 % of control and the T/C (endpoint: mean survival time, dose: 60.0 mg/kg/injection, schedule: Q01DX001 (ip), vehicle: carboxymethylcellulose (CMC)) was 93 % of control.
With `CCOCC[P+](c1ccccc1)(c1ccccc1)c1ccccc1` the T/C [16] was 92 % of control, the T/C [17] was 92 % of control and the T/C (endpoint: mean survival time, dose: 10.0 mg/kg/injection, schedule: Q01DX015 (ip), vehicle: saline) was 90 % of control. The T/C [18] was 106 % of control and the T/C [19] was 105 % of control.
`C=CCn1c(=O)n(CC=C)c(=O)n(CC=C)c1=O` was tested, and the T/C [4] was 108 % of control, the T/C (endpoint: mean survival time, dose: 100.0 mg/kg/injection, schedule: Q04DX003 (ip), vehicle: carboxymethylcellulose (CMC)) was 106 % of control and the T/C [5] was 102 % of control. The T/C (endpoint: mean survival time, dose: 200.0 mg/kg/injection, schedule: Q04DX003 (ip), vehicle: carboxymethylcellulose (CMC)) was 92 % of control, the T/C [6] was 104 % of control and the T/C (endpoint: mean survival time, dose: 400.0 mg/kg/injection, schedule: Q04DX003 (ip), vehicle: carboxymethylcellulose (CMC)) was 95 % of control.
For `O=C1CN(C2OC(CO)C(O)C2O)C(=O)NC1=O` (centres undefined), the T/C (endpoint: mean survival time, dose: 132.0 mg/kg/injection, schedule: Q01DX Z (ip), vehicle: carboxymethylcellulose (CMC)) was 107 % of control, the T/C (endpoint: mean survival time, dose: 200.0 mg/kg/injection, schedule: Q01DX Z (ip), vehicle: carboxymethylcellulose (CMC)) was 110 % of control and the T/C (endpoint: mean survival time, dose: 299.0 mg/kg/injection, schedule: Q01DX Z (ip), vehicle: carboxymethylcellulose (CMC)) was 124 % of control. The T/C (endpoint: mean survival time, dose: 449.0 mg/kg/injection, schedule: Q01DX Z (ip), vehicle: carboxymethylcellulose (CMC)) was 107 % of control.
With `COC(=O)c1ccc(N=NN(C)C)cc1` the T/C (endpoint: median survival time, dose: 65.0 mg/kg/injection, schedule: Q01DX001 (ip), vehicle: steriod suspending solution) was 100 % of control, the T/C (endpoint: median survival time, dose: 108.0 mg/kg/injection, schedule: Q01DX001 (ip), vehicle: steriod suspending solution) was 110 % of control and the T/C (endpoint: median survival time, dose: 108.0 mg/kg/injection, schedule: Q01DX009 (ip), vehicle: steriod suspending solution) was 100 % of control. The T/C (endpoint: median survival time, dose: 180.0 mg/kg/injection, schedule: Q01DX001 (ip), vehicle: steriod suspending solution) was 110 % of control and the T/C (endpoint: median survival time, dose: 180.0 mg/kg/injection, schedule: Q04DX003 (ip), vehicle: steriod suspending solution) was 150 % of control.
With `O=C(CCN1CCCC1)c1ccc(F)cc1` the T/C (endpoint: mean survival time, dose: 25.0 mg/kg/injection, schedule: Q01DX009 (ip), vehicle: saline) was 109 % of control and the T/C (endpoint: mean survival time, dose: 50.0 mg/kg/injection, schedule: Q01DX009 (ip), vehicle: saline) was 115 % of control.
For `CC(C)CCCC(C)CCC1=C(O)c2ccccc2C(=O)C1=O` (centres undefined), the T/C [20] was 102 % of control, the T/C [21] was 101 % of control and the T/C [22] was 98 % of control. The T/C [23] was 97 % of control, the T/C [24] was 100 % of control and the T/C (endpoint: mean survival time, dose: 400.0 mg/kg/injection, schedule: Q04DX003 (ip), vehicle: Klucel (hydroxypropylcellulose) (HPC)) was 97 % of control.
With `CCCCCCCC(=O)Nc1ccc(C)cc1` the T/C [7] was 97 % of control, the T/C [8] was 95 % of control and the T/C [21] was 99 % of control. The T/C [9] was 98 % of control and the T/C [23] was 98 % of control.
`CN(C)C(=O)C(=O)C1C=Cc2ccccc21` (centres undefined) was tested, and the T/C [1] was 93 % of control, the T/C [2] was 88 % of control and the T/C [3] was 102 % of control.
For `CC1C(=O)c2cc3c(cc2CCN(C)Cc2c1ccc1c2OCO1)OCO3` (centres undefined), the T/C [16] was 103 % of control, the T/C (endpoint: mean survival time, dose: 9.5 mg/kg/injection, schedule: Q01DX001 (ip), vehicle: other) was 93 % of control and the T/C [17] was 103 % of control. For the same molecule, the T/C (endpoint: mean survival time, dose: 19.0 mg/kg/injection, schedule: Q01DX001 (ip), vehicle: other) was 104 % of control, the T/C [18] was 101 % of control and the T/C [19] was 101 % of control.
`CC(=O)Nc1ccc(/C=C2N=C(/C=C/c3ccccc3)OC\2=O)cc1` was tested, and the T/C [10] was 94 % of control, the T/C [11] was 105 % of control and the T/C [12] was 90 % of control.
With `CCCCCCCCCCCCCCCCCC(=O)N/N=C\c1ccc(O)c(OC)c1` the T/C [8] was 95 % of control, the T/C [9] was 90 % of control and the T/C (endpoint: mean survival time, dose: 400.0 mg/kg/injection, schedule: Q01DX009 (ip), vehicle: Klucel (hydroxypropylcellulose) (HPC)) was 88 % of control.
For `Clc1ncnc2scnc12`, the T/C (endpoint: mean survival time, dose: 50.0 mg/kg/injection, schedule: Q01DX001 (ip), vehicle: carboxymethylcellulose (CMC)) was 102 % of control, the T/C (endpoint: mean survival time, dose: 100.0 mg/kg/injection, schedule: Q01DX001 (ip), vehicle: carboxymethylcellulose (CMC)) was 91 % of control and the T/C (endpoint: mean survival time, dose: 200.0 mg/kg/injection, schedule: Q01DX001 (ip), vehicle: carboxymethylcellulose (CMC)) was 98 % of control.
With `COc1ccc(C(N)=S)c2ccccc12` the T/C [20] was 105 % of control, the T/C [22] was 102 % of control and the T/C [24] was 102 % of control.

Reference: PubChem BioAssay AID248 (DTP/NCI, 2004)
